Like-named read-outs stand apart in the source and are kept apart here.
Columns and labels:
[1] = molecular target: T1, Kv1.3 potassium channel (Homo sapiens, UniProt P22001); assay: Kv1.3 potassium channel blocker activity, automated whole-cell patch clamp (Patchliner); assay type: cell-based; settings: CHO-K1 cells stably expressing Kv1.3, whole cell current, pulses -90 mV to +40 mV, read-out: Kv1.3_IC50
T1 construct: expressed in transfected cells
Description: Example 67. Evaluation of Kv1.3 Potassium Channel Blocker Activities
The assay described below is used to evaluate the disclosed compound's activities as Kv1.3 potassium channel blockers.
CHO-K1 cells stably expressing Kv1.3 were grown in DMEM containing 10% heat-inactivated FBS, 1 mM Sodium Pyruvate, 2 mM L-Glutamine and G418 (500 μg/ml). Cells were grown in culture flasks at 37° C. in a 5% CO2-humidified incubator.
(§1) The cells were bathed in an extracellular solution containing 140 mM NaCl, 4 mM KCl, 2 mM CaCl2), 1 mM MgCl2, 5 mM Glucose, 10 mM HEPES; pH adjusted to 7.4 with NaOH; 295-305 mOsm. The internal solution contained 50 mM KCl, 10 mM NaCl, 60 mM KF, 20 mM EGTA, 10 mM HEPES; pH adjusted to 7.2 with KOH; 285 mOsm. All compounds were dissolved in DMSO at 30 mM. Compound stock solutions were freshly diluted with external solution to concentrations of 30 nM, 100 nM, 300 nM, 1 μM, 3 μM, 10 μM, 30 μM and 100 μM. The highest content of DMSO (0.3%) was present in 100 μM.
The currents were evoked by applying 100 ms depolarizing pulses from −90 mV (holding potential) to +40 mV were applied with 0.1 Hz frequency. Control (compound-free) and compound pulse trains for each compound concentration applied contained 20 pulses. 10 second breaks were used between pulse trains (see Table 4 below).
Whole cell current recordings and compound application were enabled by means of an automated patch clamp platform Patchliner (Nanion Technologies GmbH). EPC 10 patch clamp amplifier (HIEKA Elektronik Dr. Schulze GmbH) along with Patchmaster software (HIEKA Elektronik Dr. Schulze GmbH) was used for data acquisition. Data were sampled at 10 kHz without filtering. Passive leak currents were subtracted online using a P/4 procedure (HEKA Elektronik Dr. Schulze GmbH). Increasing compound concentrations were applied consecutively to the same cell without washouts in between. Total compound incubation time before the next pulse train was not longer than 10 seconds. Peak current inhibition was observed during compound equilibration.
(§2) AUC and peak values were obtained with Patchmaster (HEKA Elektronik Dr. Schulze GmbH). To determine IC50, the last single pulse in the pulse train corresponding to a given compound concentration was used. Obtained AUC and peak values in the presence of compound were normalized to control values in the absence of compound. Using Origin (OridinLab), IC50 was derived from data fit to Hill equation: Icompound/Icontrol=(100−A)/(1+([compound]/IC50)nH)+A, where IC50 value is the concentration at which current inhibition is half-maximal, [compound] is the applied compound concentration, A is the fraction of current that is not blocked and nH is the Hill coefficient.

[2] = molecular target: T2, hERG channel (Homo sapiens, UniProt Q12809); assay: hERG electrophysiology, automated whole-cell patch clamp (Patchliner); assay type: cell-based; settings: CHO-K1 cells stably expressing hERG, whole cell current, tail current protocol, read-out: hERG_IC50
T2 construct: expressed in transfected cells
T2 sequence (Q12809 whole entry): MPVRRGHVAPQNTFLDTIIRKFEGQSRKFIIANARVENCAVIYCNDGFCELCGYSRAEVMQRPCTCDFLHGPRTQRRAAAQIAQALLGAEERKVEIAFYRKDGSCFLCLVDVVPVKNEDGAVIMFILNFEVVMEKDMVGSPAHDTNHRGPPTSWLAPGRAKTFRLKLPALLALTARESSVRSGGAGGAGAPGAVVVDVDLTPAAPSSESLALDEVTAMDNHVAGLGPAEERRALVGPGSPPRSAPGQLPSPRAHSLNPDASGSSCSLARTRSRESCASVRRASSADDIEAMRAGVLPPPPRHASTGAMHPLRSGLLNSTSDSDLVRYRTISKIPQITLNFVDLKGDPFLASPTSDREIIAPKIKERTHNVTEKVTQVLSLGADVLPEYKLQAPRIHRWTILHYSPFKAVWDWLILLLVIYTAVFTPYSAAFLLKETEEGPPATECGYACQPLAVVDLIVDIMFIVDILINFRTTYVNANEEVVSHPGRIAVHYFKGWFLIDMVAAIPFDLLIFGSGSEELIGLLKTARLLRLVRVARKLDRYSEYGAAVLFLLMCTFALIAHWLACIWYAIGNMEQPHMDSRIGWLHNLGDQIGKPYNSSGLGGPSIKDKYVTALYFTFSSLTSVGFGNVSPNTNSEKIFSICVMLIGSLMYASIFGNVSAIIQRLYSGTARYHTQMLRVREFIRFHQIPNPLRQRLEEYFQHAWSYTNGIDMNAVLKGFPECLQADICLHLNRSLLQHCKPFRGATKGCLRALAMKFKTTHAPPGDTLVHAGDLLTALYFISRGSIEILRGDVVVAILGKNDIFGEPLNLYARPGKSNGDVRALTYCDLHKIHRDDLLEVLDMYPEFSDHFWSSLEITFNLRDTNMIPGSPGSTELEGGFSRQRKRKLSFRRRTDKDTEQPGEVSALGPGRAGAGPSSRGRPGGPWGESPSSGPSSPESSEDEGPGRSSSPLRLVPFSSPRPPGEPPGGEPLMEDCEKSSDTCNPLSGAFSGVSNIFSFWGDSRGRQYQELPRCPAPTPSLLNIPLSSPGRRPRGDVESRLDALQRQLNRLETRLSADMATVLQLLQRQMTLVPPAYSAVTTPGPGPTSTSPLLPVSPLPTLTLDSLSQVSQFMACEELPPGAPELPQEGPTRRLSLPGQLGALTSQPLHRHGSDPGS
Description: Example 68. Evaluation of hERG Activities
This assay is used to evaluate the disclosed compounds' inhibition activities against the hERG channel.
CHO-K1 cells stably expressing hERG were grown in Ham's F-12 Medium with Glutamine containing 10% heat-inactivated FBS, 1% Penicillin/Streptomycin, Hygromycin (100 μg/ml) and G418 (100 μg/ml). Cells were grown in culture flasks at 37° C. in a 5% CO2-humidified incubator.
as §1
The voltage protocol (see Table 5) was designed to simulate voltage changes during a cardiac action potential with a 300 ms depolarization to +20 mV (analogous to the plateau phase of the cardiac action potential), a repolarization for 300 ms to −50 mV (inducing a tail current) and a final step to the holding potential of −80 mV. The pulse frequency was 0.3 Hz. Control (compound-free) and compound pulse trains for each compound concentration applied contained 70 pulses.
Whole cell current recordings and compound application were enabled by means of an automated patch clamp platform Patchliner (Nanion). EPC 10 patch clamp amplifier (HEKA) along with Patchmaster software (HEKA Elektronik Dr. Schulze GmbH) was used for data acquisition. Data were sampled at 10 kHz without filtering. Increasing compound concentrations were applied consecutively to the same cell without washouts in between.
as §2, with “PEAK” for “peak”, “IC50” for “IC50,”, “IC50” for “IC50 value”

T1 sequence (P22001 whole entry): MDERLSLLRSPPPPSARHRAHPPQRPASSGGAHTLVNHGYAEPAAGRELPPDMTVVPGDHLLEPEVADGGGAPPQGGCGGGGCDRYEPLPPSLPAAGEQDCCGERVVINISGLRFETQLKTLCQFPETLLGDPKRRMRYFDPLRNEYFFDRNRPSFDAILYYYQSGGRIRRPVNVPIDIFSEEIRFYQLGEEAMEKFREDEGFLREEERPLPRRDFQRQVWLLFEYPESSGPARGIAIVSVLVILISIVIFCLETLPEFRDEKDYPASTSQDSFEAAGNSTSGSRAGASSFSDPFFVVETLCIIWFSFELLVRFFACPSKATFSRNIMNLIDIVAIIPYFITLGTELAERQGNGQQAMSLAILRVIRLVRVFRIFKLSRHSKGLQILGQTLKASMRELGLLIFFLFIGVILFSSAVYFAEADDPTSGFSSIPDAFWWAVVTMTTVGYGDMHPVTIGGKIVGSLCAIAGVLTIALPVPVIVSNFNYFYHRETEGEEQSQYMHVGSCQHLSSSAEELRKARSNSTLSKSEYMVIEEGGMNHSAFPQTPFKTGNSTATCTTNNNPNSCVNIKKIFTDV

## NC(=O)c1ccc(C(O)c2c(O)ccc(Cl)c2Cl)cc1 (centres unmarked) [Compound 64, 4-[(2,3-dichloro-6-hydroxyphenyl)(hydroxy)methyl]benzamide]
[1]; Table 6
  IC50: < 1 µM
[2]; Table 6
  IC50: > 30 µM

## Oc1cc(Cl)c(Cl)cc1Cc1ccncc1 [Compound 1, 2-[(pyridin-4-yl)methyl]-4,5-dichlorophenol]
[1]; Table 6
  IC50: < 10 µM
[2]; Table 6
  IC50: > 30 µM

## Oc1ccc(Cl)c(Cl)c1C(O)c1ccncc1 (single isomer, unassigned) [Compound 34, 3,4-dichloro-2-(hydroxy(pyridin-4-yl)methyl)phenol]
[1]; Table 6
  IC50: < 30 µM
[2]; Table 6
  IC50: > 30 µM

## CC(=O)CC(c1ccncc1)c1c(O)ccc2ccccc12 (centres unmarked) [Compound 18]
[1]; Table 6
  IC50: < 10 µM
[2]; Table 6
  IC50: > 30 µM

## NC(c1ccncc1)c1c(O)ccc(Cl)c1Cl (centres unmarked) [Compound 11, 2-[amino(pyridin-4-yl)methyl]-3,4-dichlorophenol]
[1]; Table 6
  IC50: < 10 µM
[2]; Table 6
  IC50: > 30 µM

## CC(=O)NC(c1ccncc1)c1c(O)ccc(Cl)c1Cl (centres unmarked) [Compound 20, N-[(2,3-dichloro-6-hydroxyphenyl)(pyridin-4-yl)methyl]acetamide]
[1]; Table 6
  IC50: < 1 µM
[2]; Table 6
  IC50: > 30 µM

## NC(c1ccc2c(c1)CNC2)c1cc(Cl)c(Cl)cc1O (centres unmarked) [Compound 21, 2-[amino(2,3-dihydro-1H-isoindol-5-yl)methyl]-4,5-dichlorophenol]
[1]; Table 6
  IC50: < 1 µM
[2]; Table 6
  IC50: < 30 µM

## Nc1ccc(Cc2cc(Cl)c(Cl)cc2O)cn1 [Compound 8, 2-[(6-aminopyridin-3-yl)methyl]-4,5-dichlorophenol]
[1]; Table 6
  IC50: < 10 µM
[2]; Table 6
  IC50: < 30 µM

## NCc1cc(C(O)c2c(O)ccc(Cl)c2Cl)ccn1 (centres unmarked) [Compound 28, 2-[[2-(aminomethyl)pyridin-4-yl](hydroxy)methyl]-3,4-dichlorophenol]
[1]; Table 6
  IC50: < 1 µM
[2]; Table 6
  IC50: > 30 µM

## O=C(N[C@H](c1ccncc1)c1c(O)ccc(Cl)c1Cl)[C@@H]1CCCN1 (single isomer, unassigned) [Compound 68]
[1]; Table 6
  IC50: < 1 µM
[2]; Table 6
  IC50: < 30 µM

## C[C@H](NC(=O)C1CNC1)c1c(O)ccc(Cl)c1Br [Compound 98, N-[(1S)-1-(2-bromo-3-chloro-6-hydroxyphenyl)ethyl]azetidine-3-carboxamide]
[1]; Table 7
  IC50: < 1 µM
[2]; Table 7
  IC50: > 30 µM

## NCc1cc(C(O)c2c(O)ccc(Cl)c2Cl)ccn1 (single isomer, unassigned) [Compound 53, 2-((2-(aminomethyl)pyridin-4-yl)(hydroxy)methyl)-3,4-dichlorophenol]
[1]; Table 6
  IC50: < 1 µM
[2]; Table 6
  IC50: > 30 µM

## Oc1cc(Cl)c(Cl)cc1C(O)c1ccncc1 (centres unmarked) [Compound 27, 4,5-dichloro-2-[hydroxy(pyridin-4-yl)methyl]phenol]
[1]; Table 6
  IC50: < 10 µM
[2]; Table 6
  IC50: > 30 µM

## Nc1cc(C(O)c2c(O)ccc(Cl)c2Cl)ccn1 (centres unmarked) [Compound 36, 2-[(2-aminopyridin-4-yl)(hydroxy)methyl]-3,4-dichlorophenol]
[1]; Table 6
  IC50: < 1 µM
[2]; Table 6
  IC50: > 30 µM

## CC(=O)NC(c1ccncc1)c1c(O)ccc(Cl)c1Cl (single isomer, unassigned) [Compound 38, N-((2,3-dichloro-6-hydroxyphenyl)(pyridin-4-yl)methyl)acetamide]
[1]; Table 6
  IC50: < 30 µM
[2]; Table 6
  IC50: > 30 µM

## O=C(NC(c1ccncc1)c1c(O)ccc(Cl)c1Cl)C1CNC1 (centres unmarked) [Compound 42, N-[(2,3-dichloro-6-hydroxyphenyl)(pyridin-4-yl)methyl]azetidine-3-carboxamide]
[1]; Table 6
  IC50: < 1 µM
[2]; Table 6
  IC50: > 30 µM

## Oc1ccc(Cl)c(Cl)c1C(O)c1ccncc1 (centres unmarked) [Compound 29, 3,4-dichloro-2-[hydroxy(pyridin-4-yl)methyl]phenol]
[1]; Table 6
  IC50: < 1 µM
[2]; Table 6
  IC50: > 30 µM

## CC(NC(=O)C1CNC1)c1c(O)ccc(Br)c1Cl (stereo in doubt) [Compound 91, N-[(1R)-1-3-bromo-2-chloro-6-hydroxyphenyl) ethyl]azetidine-3-carboxamide]
[1]; Table 7
  IC50: < 1 µM
[2]; Table 7
  IC50: > 30 µM

## CN1CC(C(=O)NC(c2ccncc2)c2c(O)ccc(Cl)c2Cl)C1 (centres unmarked) [Compound 73, N-[(2,3-dichloro-6-hydroxyphenyl)(pyridin-4-yl)methyl]-1-methylazetidine-3-carboxamide]
[1]; Table 6
  IC50: < 1 µM
[2]; Table 6
  IC50: > 30 µM

Source: US20230131535A1, “ARYLMETHYLENE AROMATIC COMPOUNDS AS Kv1.3 POTASSIUM SHAKER CHANNEL BLOCKERS” (D. E. Shaw Research, LLC, priority 2019, published 2023)
